In US20240043444A1, “METHODS FOR TREATING SPINOCEREBELLAR ATAXIA TYPE 3” (PTC Therapeutics, Inc., priority 2021, published 2024):

Experiments:
[1] = system: ATXN3 Pre-mRNA (exon 4 skipping); test: RT-qPCR Assay to Quantify Exon 4 Skipping in ATXN3 Pre-mRNA in Cells; assay type: cell-based; conditions: cells incubated with compound 24 h, normalised to GAPDH, 7-point concentration curve
Procedure: (§1) Test compounds were serially diluted 3.16-fold in 100% DMSO to generate a 7-point concentration curve. Aliquots of 0.5 μL of diluted compounds were transferred to a 96-well flat bottom plate by a liquid handler. An aliquot of 0.5 μL DMSO was also transferred to separate wells and used as controls. Duplicate samples were set up for each compound concentration and for the DMSO control.
Cells were thawed and incubated in cell culture media (DMEM, 10% FBS, and 1% antibiotic cocktail) for 72 h. Cells were trypsinized, counted, and re-suspended to a concentration of 100,000 cells/mL in cell culture media. A 100 μL aliquot of the cell suspensions were plated at 10,000 cells per well in the compound containing 96 well microtiter plate and incubated for in a cell culture incubator (37° C., 5% CO2, 100% relative humidity).
After 24 h, media was aspirated from the cells and 50 μL of the RCL2 lysis buffer (10 mM Tris-HCL pH 7.4, 150 mM NaCl, 0.33% IGEPAL® CA-630) was added to each well and incubated at room temperature for 1 min. Chilled nuclease free water (50 μL per well) was added and the plates were immediately transferred on ice. After 1 min on ice, plates were frozen at −80° C. overnight.
Preparation of RT-qPCR Reaction Mixture:
An aliquot of 2 μL/well of the cell lysates was transferred using the liquid handler to the Armadillo 384-Well PCR plate containing 8 μL/well of the RT-qPCR reaction mixture that was prepared as detailed above. The plates were then sealed with MicroAmp™ Optical Adhesive Film followed by spinning down for 1 min and placed in the CFX384 thermocycler (BioRad).
The RT-qPCR was carried out at the following temperatures for the indicated time: • Step 1: 48° C. (30 min) • Step 2: 95° C. (10 min) • Step 3: 95° C. (15 sec) • Step 4: 60° C. (1 min); then, repeated Steps 3 and 4 for a total of 40 cycles.
The percent exon 4 skipping was calculated for each dose of compound treatment using Equations 1 and 2.
Data were fit to a dose response curve and the IC50 was interpolated using XLfit® statistical and curve fitting package.
An IC50 value between >2.0 μM and ≤3.0 μM is indicated by one star (*). […] IC50 value between >0.5 μM and ≤1.0 μM is indicated by four stars (****). An IC50 value ≤0.5 μM is indicated by five stars (*****).

[2] = system: Endogenous Total ATXN3 (tATXN3) Protein; test: Endogenous Total ATXN3 (tATXN3) Protein Assay (MSD immunoassay of cell lysates); assay type: cell-based; conditions: cells incubated with compound 48 h; 7-point concentration curve; MSD plate readout
Procedure: Meso Scale Discovery (MSD) 96-well or 384-well plates were coated overnight at 4° C. with Ataxin 3 mouse monoclonal antibody (Invitrogen, MA3-082) at a concentration of […] in PBS (30 μL per well). Plates were then washed three times with 300 μL wash buffer (0.05% TWEEN®-20, polyethylene glycol sorbitan monolaurate, in PBS) and blocked (Meso Scale Diagnostics, R93BA-1; 5% BSA in PBS) for 2 h at room temperature with rotational shaking and then washed three times with wash buffer.
as §1
Cells were thawed and incubated in cell culture media (DMEM, 10% FBS, and 1% antibiotic cocktail) for 72 h. Cells were trypsinized, counted, and re-suspended to a concentration of 100,000 cells/mL in cell culture media. A 100 μL aliquot of the cell suspensions were plated at 10,000 cells per well in the compound containing 96 well microtiter plate and incubated for in a cell culture incubator (37° C., 5% CO2, 100% relative humidity). After 48 h, the medium was removed and 50-100 μL of lysis buffer (Meso Scale Diagnostics, R60TX-2) containing 1× halt protease inhibitor cocktail of (Thermo Scientific, Halt™ Protease Inhibitor Cocktail, 78430) per well was added to cells to provide a “cell lysate”. The plate was placed on a shaker at 4° C. for 30 minutes, then stored at −80° C.
Cell lysate samples (25 μL) were transferred to the antibody-coated MSD plate and incubated overnight at 4° C. After removal of the lysates, the plate was washed three times with wash buffer, and 25 μL of Ataxin 3 recombinant rabbit monoclonal antibody (Invitrogen, #702788) secondary antibody (diluted to 0.25 μg/mL in 0.05% TWEEN®-20 in blocking buffer) was added to each well and incubated with shaking for 1-2 h at room temperature. Following incubation with the secondary antibody, the wells were rinsed with wash buffer and then 25 μL of Anti Rabbit Antibody Goat SULFO-TAG Labeled (Meso Scale Diagnostics, R32AB-1) detecting antibody (diluted to 0.25 μg/mL in 0.05% TWEEN®-20 in blocking buffer) was added to each well and incubated with shaking for 1 h at room temperature. After rinsing three times with wash buffer, 150 μL of Read Buffer T with surfactant (tris-based buffer containing tripropylamine, Meso Scale Diagnostics, R92TC-1) were added to each empty well, and the plate was imaged on a SI 6000 imager (MSD) according to manufacturers' instructions provided for 96- or 384-well plates.

| Structure (SMILES) | IC50 [1] [nM] | IC50 [2] [nM] | IC50 (exon 4 skipping in ATXN3 pre-mRNA) [1] | IC50 (average, total ATXN3 protein) [2] |
| --- | --- | --- | --- | --- |
| CC[C@H](N)Cc1sc2c(NCc3ccns3)nc(Cl)nc2c1C [Cpd 62, 6-[(2S)-2-aminobutyl]-2-chloro-7-methyl-N-[(1,2-thiazol-5-yl)methyl]thieno[3,2-d]pyrimidin-4-amine] | ≤ 500 | ≤ 500 | – | – |
| Cc1c(C[C@H](C)N)sc2c(NCc3c(F)cncc3F)nc(Cl)nc12 [Cpd 64, 6-[(2S)-2-aminopropyl]-2-chloro-N-[(3,5-difluoropyridin-4-yl)methyl]-7-methylthieno[3,2-d]pyrimidin-4-amine] | 500 to 1000 | 1000 to 1500 | – | – |
| Cc1c(C[C@H](C)CO)sc2c(NCc3ccco3)nc(Cl)nc12 [Cpd 66, (2S)-3-(2-chloro-4-{[(furan-2-yl)methyl]amino}-7-methylthieno[3,2-d]pyrimidin-6-yl)-2-methylpropan-1-ol] | – | – | inactive | inactive |
| Cc1c(CCCN)sc2c(NCc3ccco3)nc(Cl)nc12 [Cpd 67, 6-(3-aminopropyl)-2-chloro-N-[(furan-2-yl)methyl]-7-methylthieno[3,2-d]pyrimidin-4-amine] | – | – | inactive | inactive |
| C[C@H](N)Cc1sc2c(NCc3ccncc3F)nc(Cl)nc2c1Br [Cpd 68, 6-[(2S)-2-aminopropyl]-7-bromo-2-chloro-N-[(3-fluoropyridin-4-yl)methyl]thieno[3,2-d]pyrimidin-4-amine] | ≤ 500 | ≤ 500 | – | – |
| Cc1c(C[C@H](C)CN)sc2c(NCc3ccco3)nc(Cl)nc12 [Cpd 70, 6-[(2S)-3-amino-2-methylpropyl]-2-chloro-N-[(furan-2-yl)methyl]-7-methylthieno[3,2-d]pyrimidin-4-amine] | 500 to 1000 | 1000 to 1500 | – | – |
| Cc1c(C[C@@H](C)CN)sc2c(NCc3ccco3)nc(Cl)nc12 [Cpd 72, 6-[(2R)-3-amino-2-methylpropyl]-2-chloro-N-[(furan-2-yl)methyl]-7-methylthieno[3,2-d]pyrimidin-4-amine] | 1500 to 2000 | > 2000 | – | – |
| Cc1c(C[C@H](C)N)sc2c(NCc3ncc[nH]3)nc(Cl)nc12 [Cpd 73, 6-[(2S)-2-aminopropyl]-2-chloro-N-[(1H-imidazol-2-yl)methyl]-7-methylthieno[3,2-d]pyrimidin-4-amine] | – | – | inactive | inactive |
| Cc1c(C[C@H](C)N)sc2c(NCc3cncs3)nc(Cl)nc12 [Cpd 74, 6-[(2S)-2-aminopropyl]-2-chloro-7-methyl-N-[(1,3-thiazol-5-yl)methyl]thieno[3,2-d]pyrimidin-4-amine] | 1000 to 1500 | 1500 to 2000 | – | – |
| Cc1c(C[C@H](C)N)sc2c(NCc3cnco3)nc(Cl)nc12 [Cpd 75, 6-[(2S)-2-aminopropyl]-2-chloro-7-methyl-N-[(1,3-oxazol-5-yl)methyl]thieno[3,2-d]pyrimidin-4-amine] | 500 to 1000 | 1000 to 1500 | – | – |
| CCc1c(C[C@H](C)N)sc2c(NCc3ccco3)nc(Cl)nc12 [Cpd 77, 6-[(2S)-2-aminopropyl]-2-chloro-7-ethyl-N-[(furan-2-yl)methyl]thieno[3,2-d]pyrimidin-4-amine] | ≤ 500 | ≤ 500 | – | – |
| Cc1c(C[C@H](C)NC2CCC2)sc2c(NCc3ccco3)nc(Cl)nc12 [Cpd 78, 2-chloro-6-[(2S)-2-(cyclobutylamino)propyl]-N-[(furan-2-yl)methyl]-7-methylthieno[3,2-d]pyrimidin-4-amine] | 1000 to 1500 | 1500 to 2000 | – | – |
| Clc1nc(NCc2cccs2)c2scc(Br)c2n1 [Cpd 80, 7-bromo-2-chloro-N-[(thiophen-2-yl)methyl]thieno[3,2-d]pyrimidin-4-amine] | – | – | inactive | inactive |
| Cc1c(C[C@H](C)N)sc2c(NCc3ccnn3C)nc(Cl)nc12 [Cpd 81, 6-[(2S)-2-aminopropyl]-2-chloro-7-methyl-N-[(1-methyl-1H-pyrazol-5-yl)methyl]thieno[3,2-d]pyrimidin-4-amine] | – | – | inactive | inactive |
| C[C@H](N)Cc1sc2c(NCc3cccs3)nc(Cl)nc2c1Br [Cpd 82, 6-[(2S)-2-aminopropyl]-7-bromo-2-chloro-N-[(thiophen-2-yl)methyl]thieno[3,2-d]pyrimidin-4-amine] | ≤ 500 | ≤ 500 | – | – |
| C[C@H](N)Cc1sc2c(NCc3cccs3)nc(Cl)nc2c1C1CC1 [Cpd 86, 6-[(2S)-2-aminopropyl]-2-chloro-7-cyclopropyl-N-[(thiophen-2-yl)methyl]thieno[3,2-d]pyrimidin-4-amine] | ≤ 500 | ≤ 500 | – | – |
| C[C@H](N)Cc1sc2c(NCc3cccs3)nc(Cl)nc2c1-c1ccc(Cl)cc1 [Cpd 88, 6-[(2S)-2-aminopropyl]-2-chloro-7-(4-chlorophenyl)-N-[(thiophen-2-yl)methyl]thieno[3,2-d]pyrimidin-4-amine] | – | – | inactive | inactive |
| Cc1c(C[C@H](C)N)sc2c(NCc3sccc3F)nc(Cl)nc12 [Cpd 90, 6-[(2S)-2-aminopropyl]-2-chloro-N-[(3-fluorothiophen-2-yl)methyl]-7-methylthieno[3,2-d]pyrimidin-4-amine] | ≤ 500 | ≤ 500 | – | – |
| Cc1c(C[C@H](C)N)sc2c(NCc3nc(F)cs3)nc(Cl)nc12 [Cpd 92, 6-[(2S)-2-aminopropyl]-2-chloro-N-[(4-fluoro-1,3-thiazol-2-yl)methyl]-7-methylthieno[3,2-d]pyrimidin-4-amine] | ≤ 500 | ≤ 500 | – | – |
| Cc1c(C[C@H](C)N)sc2c(NCc3ncc(F)s3)nc(Cl)nc12 [Cpd 93, 6-[(2S)-2-aminopropyl]-2-chloro-N-[(5-fluoro-1,3-thiazol-2-yl)methyl]-7-methylthieno[3,2-d]pyrimidin-4-amine] | ≤ 500 | ≤ 500 | – | – |
| Cc1c([C@@H](C)N)sc2c(NCc3ccco3)nc(Cl)nc12 [Cpd 94, 6-[(1R)-1-aminoethyl]-2-chloro-N-[(furan-2-yl)methyl]-7-methylthieno[3,2-d]pyrimidin-4-amine] | – | – | inactive | inactive |
| Cc1c(C[C@@H](N)CCO)sc2c(NCc3ccco3)nc(Cl)nc12 [Cpd 97, (3S)-3-amino-4-(2-chloro-4-{[(furan-2-yl)methyl]amino}-7-methylthieno[3,2-d]pyrimidin-6-yl)butan-1-ol] | ≤ 500 | ≤ 500 | – | – |
